# Measurements reported in patent publication US8017828B2, “Utilization of rare sugars in plant or microorganism” (Shikoku Research Institute Incorporated, priority 2004, dated 2011).
# Experiments:
# Bletilla striata = experiment: Growth and bulb formation of Bletilla striata seedlings in tissue culture; type: in vivo
# Experimental: Seedling plants of Bletilla striata obtained by sterile sowing were used in an experiment.
# As for the Bletilla striata, by using ½ strength MS medium supplemented with D-psicose, D-allose, D-glucose or D-frucose at a concentration of from 0.005% to 0.05% (w/v), the seedling plants were aseptically transplanted on Feb. 27, 2003, and then, cultivation was carried out under the same conditions as those of the strawberry in Example 3. Then, on Jun. 30, 2003, a survey was carried out with regard to the growth conditions of aerial part and underground part, the number of buds, the ratio of bulb formation, the bulb size and the like.
# [1] = tested on: rice plant (variety: “Hinohikari”); experiment: Foliar spraying of sugar on pot-grown rice; type: in vivo
# Experimental: After seeds of a rice plant (variety: “Hinohikari”) were put in a nylon net and subjected to sterilization and a germination induction treatment in a growth chamber at 30° C. for 2 days while they were soaked in 0.1% (w/v) Benlate (Hokko Chemical Industry Co., Ltd.) in accordance with a common method, they were sown in a nursery tray filled with “Kumiai Ryujou Baido SD” (Kureha Chemical Industry Co., Ltd.) and raised in a phytotron (day temperature: 25° C. and night temperature: 18° C.) for about 2 weeks. Then, Wagner pots with a size of 1/5,000a were filled with “Kumiai Ryujou Baido SD” (Kureha Chemical Industry Co., Ltd.) and the raised rice seedlings were transplanted for permanent planting to the pots and the cultivation was started on Jul. 2, 2003 in the open air under the condition that the soil was covered with water in the pots. From Jul. 16, 2003, when the seedlings were confirmed to take root, water, a 0.02% (w/v) sugar solution, a 0.1% (w/v) sugar solution or a 0.5% (w/v) sugar solution was sprayed onto the whole plant on a three times weekly basis. As for the types of sugars, D-glucose, D-fructose and D-psicose were used and three pots were cultivated for each test plot. The cultivation was continued in such a manner that the water in pots was not dried up and after 5 g of Magamp K medium (HYPONeX JAPAN CORP., Ltd.) per pot was added as additional fertilization on Aug. 29, 2003, and the harvest and survey were carried out on Sep. 22, 2003. The survey items were plant length, number of tillers, leaf weight, husk weight, underground part weight and the like.
# Phalaenopsis orchid = experiment: Growth of Phalaenopsis orchid flask seedlings in tissue culture; type: in vivo; conditions: 0.005% in MS medium; for Underground part weight: non 2.9; for Aerial part weight: non 4.7; for Number of roots: non 12.5
# Experimental: (§1) Flask seedlings of Phalaenopsis orchid and Cymbidium obtained by tissue culture were used in an experiment.
# As for Phalaenopsis orchid, MS medium supplemented with D-psicose, D-glucose or D-fructose at a concentration of 0.005% (w/v) was used, and the flask seedlings were aseptically transplanted on Sep. 6, 2004. As for the number of seedlings, 4 seedlings were used for 1 test plot, and glass bottles with a capacity of 500 ml and having a hole with a diameter of about 1 cm for preventing dew condensation made in the upper region was used as culture containers. The cultivation was carried out in a culture chamber at 25° C. and 5,000 Lux (12-hour day length) Then, on Jan. 24, 2005, a survey was carried out with regard to the growth conditions of aerial part and underground part and the number of roots. The results are shown in Table 8 (effect of addition of D-psicose on the growth of seedlings of Phalaenopsis orchid).
# Cymbidium = experiment: Growth of Cymbidium flask seedlings in tissue culture; type: in vivo; conditions: 0.005% in MS medium; for Number of lateral buds: non 0; for Aerial part weight: non 2.1; for Underground part weight: non 3.8; for Number of roots: non 10.8
# Source text: as §1
# As for Cymbidium, in the same manner as the above Phalaenopsis orchid, MS medium supplemented with D-psicose, D-glucose, D-fructose or D-allose was used, and the flask seedlings were aseptically transplanted on Oct. 4, 2004. At this time, 4 or 5 leaves and 2 roots were left and the rest of them were cut off using a knife. As for the number of seedlings, 4 seedlings were used for 1 test plot, and glass bottles with a capacity of 900 ml and having a hole with a diameter of about 1 cm for preventing dew condensation made in the upper region was used as culture containers. The cultivation was carried out in a culture chamber at 25° C. and 5,000 Lux (12-hour day length) Then, on Feb. 1, 2005, a survey was carried out with regard to the growth conditions of aerial part and underground part, the number of roots and the number of lateral buds. The results are shown in Table 9 (effect of addition of rare sugar on the growth of seedlings of Cymbidium).
# [2] = tested on: Pythium ultimum IFO 32426 strain; experiment: Oospore formation of Pythium ultimum in sugar solution; type: cell-based; conditions: 0.05% (w/v) sugar solution, 23° C., 4 days
# Experimental: With regard to Pythium ultimum that causes damping-off of spinach and the like, an effect of a rare sugar on oospore formation was examined.
# First, as the Pythium ultimum, IFO 32426 strain was used, and static culture thereof was carried out with 200 ml of V8 medium at 23° C. for 1 week. The resulting mycelial mat was well washed with sterile water and divided into 16 equal parts with forceps. This mycerial body was disentangled uniformly to form a small piece and immersed in 20 ml of a sugar solution at a concentration of 0.05% (w/v) and let stand at 23° C. for 4 days. […] Further, the same experiment was carried out using Pythium zingiberum IFO 30817 strain.
smiles,measurement,setting,value
"O=C[C@H](O)[C@@H](O)[C@H](O)[C@H](O)CO [D-glucose, reference compound]",Aerial part weight,Bletilla striata; sugar 0.005% in medium,0.15 g
same,Bulb size,Bletilla striata; sugar 0.005% in medium,5.1 mm
same,Maximum plant length,Bletilla striata; sugar 0.005% in medium,7.3 cm
same,Maximum root length,Bletilla striata; sugar 0.005% in medium,4.9 cm
same,Number of buds,Bletilla striata; sugar 0.005% in medium,3.7
same,Number of leaves,Bletilla striata; sugar 0.005% in medium,4.1
same,Ratio of bulb formation,Bletilla striata; sugar 0.005% in medium,37%
same,Underground part weight,Bletilla striata; sugar 0.005% in medium,0.13 g
same,Aerial part weight,Bletilla striata; sugar 0.02% in medium,0.20 g
same,Bulb size,Bletilla striata; sugar 0.02% in medium,5.7 mm
same,Maximum plant length,Bletilla striata; sugar 0.02% in medium,7.2 cm
same,Maximum root length,Bletilla striata; sugar 0.02% in medium,5.1 cm
same,Number of buds,Bletilla striata; sugar 0.02% in medium,3.4
same,Number of leaves,Bletilla striata; sugar 0.02% in medium,3.9
same,Ratio of bulb formation,Bletilla striata; sugar 0.02% in medium,59%
same,Underground part weight,Bletilla striata; sugar 0.02% in medium,0.18 g
same,Aerial part weight,Bletilla striata; sugar 0.05% in medium,0.18 g
same,Bulb size,Bletilla striata; sugar 0.05% in medium,5.2 mm
same,Maximum plant length,Bletilla striata; sugar 0.05% in medium,6.5 cm
same,Maximum root length,Bletilla striata; sugar 0.05% in medium,6.1 cm
same,Number of buds,Bletilla striata; sugar 0.05% in medium,3.4
same,Number of leaves,Bletilla striata; sugar 0.05% in medium,4.0
same,Ratio of bulb formation,Bletilla striata; sugar 0.05% in medium,45%
same,Underground part weight,Bletilla striata; sugar 0.05% in medium,0.14 g
same,Dry husk weight,[1]; 0.02% sugar solution sprayed,17.2 g
same,Dry leaf weight,[1]; 0.02% sugar solution sprayed,34.0 g
same,Number of tillers,[1]; 0.02% sugar solution sprayed,29.3
same,Plant length,[1]; 0.02% sugar solution sprayed,74.0 cm
same,Dry husk weight,[1]; 0.10% sugar solution sprayed,17.6 g
same,Dry leaf weight,[1]; 0.10% sugar solution sprayed,35.5 g
same,Number of tillers,[1]; 0.10% sugar solution sprayed,30.0
same,Plant length,[1]; 0.10% sugar solution sprayed,75.5 cm
same,Dry husk weight,[1]; 0.50% sugar solution sprayed,17.9 g
same,Dry leaf weight,[1]; 0.50% sugar solution sprayed,37.3 g
same,Number of tillers,[1]; 0.50% sugar solution sprayed,31.3
same,Plant length,[1]; 0.50% sugar solution sprayed,74.8 cm
same,Underground part weight,Phalaenopsis orchid,3.7 g
same,Aerial part weight,Phalaenopsis orchid,5.1 g
same,Number of roots,Phalaenopsis orchid,12.3 roots
same,Number of lateral buds,Cymbidium,0 buds
same,Aerial part weight,Cymbidium,1.9 g
same,Underground part weight,Cymbidium,2.9 g
same,Number of roots,Cymbidium,9.5 roots
same,oospore formation,[2],no effect
O=C(CO)[C@H](O)[C@H](O)[C@H](O)CO [D-psicose],growth when the concentration added to the medium was increased,Bletilla striata; increased (high) concentration in medium,the growth thereof was delayed
same,Aerial part weight,Bletilla striata; sugar 0.005% in medium,0.24 g
same,Bulb size,Bletilla striata; sugar 0.005% in medium,6.2 mm
same,Maximum plant length,Bletilla striata; sugar 0.005% in medium,9.3 cm
same,Maximum root length,Bletilla striata; sugar 0.005% in medium,4.4 cm
same,Number of buds,Bletilla striata; sugar 0.005% in medium,4.1
same,Number of leaves,Bletilla striata; sugar 0.005% in medium,3.9
same,Ratio of bulb formation,Bletilla striata; sugar 0.005% in medium,45%
same,Underground part weight,Bletilla striata; sugar 0.005% in medium,0.26 g
same,Aerial part weight,Bletilla striata; sugar 0.02% in medium,0.28 g
same,Bulb size,Bletilla striata; sugar 0.02% in medium,5.6 mm
same,Maximum plant length,Bletilla striata; sugar 0.02% in medium,9.9 cm
same,Maximum root length,Bletilla striata; sugar 0.02% in medium,4.8 cm
same,Number of buds,Bletilla striata; sugar 0.02% in medium,3.3
same,Number of leaves,Bletilla striata; sugar 0.02% in medium,3.9
same,Ratio of bulb formation,Bletilla striata; sugar 0.02% in medium,65%
same,Underground part weight,Bletilla striata; sugar 0.02% in medium,0.22 g
same,Aerial part weight,Bletilla striata; sugar 0.05% in medium,0.20 g
same,Bulb size,Bletilla striata; sugar 0.05% in medium,5.1 mm
same,Maximum plant length,Bletilla striata; sugar 0.05% in medium,7.3 cm
same,Maximum root length,Bletilla striata; sugar 0.05% in medium,5.3 cm
same,Number of buds,Bletilla striata; sugar 0.05% in medium,4.0
same,Number of leaves,Bletilla striata; sugar 0.05% in medium,3.9
same,Ratio of bulb formation,Bletilla striata; sugar 0.05% in medium,67%
same,Underground part weight,Bletilla striata; sugar 0.05% in medium,0.13 g
same,Dry husk weight,[1]; 0.02% sugar solution sprayed,16.8 g
same,Dry leaf weight,[1]; 0.02% sugar solution sprayed,36.3 g
same,Number of tillers,[1]; 0.02% sugar solution sprayed,33.7
same,Plant length,[1]; 0.02% sugar solution sprayed,73.2 cm
same,Dry husk weight,[1]; 0.10% sugar solution sprayed,14.7 g
same,Dry leaf weight,[1]; 0.10% sugar solution sprayed,31.8 g
same,Number of tillers,[1]; 0.10% sugar solution sprayed,33.5
same,Plant length,[1]; 0.10% sugar solution sprayed,76.3 cm
same,Dry husk weight,[1]; 0.50% sugar solution sprayed,10.2 g
same,Dry leaf weight,[1]; 0.50% sugar solution sprayed,27.9 g
same,Number of tillers,[1]; 0.50% sugar solution sprayed,50.0
same,Plant length,[1]; 0.50% sugar solution sprayed,71.3 cm
same,Underground part weight,Phalaenopsis orchid,4.1 g
same,Aerial part weight,Phalaenopsis orchid,6.1 g
same,Number of roots,Phalaenopsis orchid,16.0 roots
same,Number of lateral buds,Cymbidium,0.5 buds
same,Aerial part weight,Cymbidium,2.0 g
same,Underground part weight,Cymbidium,4.1 g
same,Number of roots,Cymbidium,10.8 roots
same,oospore formation,[2],inhibited
